Measured values from the NIST ThermoML archive (doi:10.1016/j.jct.2012.06.031).

Experiment: xn = mol fraction of the nth substance listed
Details: 101 kPa, Liquid; for viscosity: Concentric cylinders viscometry; for mass density: Vibrating tube method

OCCCO [propan-1,3-diol] + c1ccncc1
Details	mass density, 308.15 K [kg/m3]	mass density, 313.15 K [kg/m3]	mass density, 318.15 K [kg/m3]	mass density, 323.15 K [kg/m3]	viscosity, 308.15 K [mPa·s]	viscosity, 313.15 K [mPa·s]	viscosity, 318.15 K [mPa·s]	viscosity, 323.15 K [mPa·s]
x2 = 0	1043.64	1040.49	1037.31	1034.12	26.58	21.74	17.95	14.96
x2 = 0.0999	1037.24	1033.89	1030.51	1027.12	20.48	16.82	13.94	11.75
x2 = 0.2	1030.94	1027.39	1023.82	1020.24	14.88	12.32	10.31	8.779
x2 = 0.3	1024.12	1020.38	1016.62	1012.83	10.26	8.615	7.299	6.286
x2 = 0.4001	1017.01	1013.08	1009.13	1005.15	6.845	5.832	5.033	4.412
x2 = 0.5	1009.66	1005.55	1001.41	997.251	4.549	3.951	3.455	3.078
x2 = 0.5999	1001.93	997.629	993.305	988.961	2.976	2.636	2.35	2.139
x2 = 0.7	994	989.518	985.015	980.49	2.033	1.835	1.663	1.53
x2 = 0.7998	985.773	981.102	976.412	971.701	1.424	1.307	1.204	1.119
x2 = 0.8998	977.312	972.452	967.572	962.672	1.05	0.975	0.9082	0.8532
